According to patent US12415926B2, “Small tunable fluorophores for the detection and imaging of biomolecules” (The University Court of the University of Edinburgh, priority 2019, dated 2025):

Columns and labels:
GLUT2 = assay: Zebrafish in vivo imaging of glucose uptake; settings: 28 hpf, 50 pmol into yolk sac
Procedure: (§1) A-F) Green (GLUT4-EGFP), red (SCOTfluor-89, 100 μM) and merged (Hoechst 33342) images of HeLa cells without additional glucose (A-C) and in media containing 5 mM D-glucose ([…]). White arrows identify co-localization of GLUT4-EGFP and SCOTfluor-89. Scale bar: 10 μm. G) Fluorescence emission spectra of BFP (blue), GFP (green) and SCOTfluor-89 (red). H) Insulin-dependent (100 nM, 1 h) uptake of SCOTfluor-89 (red, 100 μM) in GLUT4-EGFP HeLa cells. I) Chemical structures of compounds SCOTfluor-54 and SCOTfluor-89. J) In vivo images of the head in zebrafish embryos (28 hpf) after injection of SCOTfluor-54 or SCOTfluor-89 (both 50 pmol) to the yolk sac (blue arrowheads). Fluorescence images were taken of wildtype zebrafish or zebrafish that had been injected at one cell stage with 4.2 ng anti-sense glut2 morpholino. Yellow arrows point at midbrain and hindbrain regions within the zebrafish embryo heads. Scale bar: 100 μm.
Anti-sense glut2 morpholino (5′-ATGACCTGCAGAC AACAAGGACACC-3′)^1 was reconstituted to 1 mM in nuclease-free H2O and injected at 4.2 ng/embryo into the one-cell stage. Embryos were maintained at 28.5° C., according to standard protocols. Wild-type controls and glut2 morphants were injected into the yolk sac at 28 hours post fertilization (hpf) with compound SCOTfluor-89 (50 pmol) and 1 mg mL^−1 10,000 MW Dextran Cascade Blue® (ThermoFisher), then embedded in 1% low-melting point agarose for live imaging. Live imaging was performed 30 min post-injection on an inverted Leica SP8 confocal microscope using a HC PL APO CS2 10×/0.40 dry lens. Dextran was excited at 405 nm laser and detected at 415-480 nm, while compound SCOTfluor-89 was excited at 488 nm and detected at 498-600 nm.
It was also examined whether SCOTfluors could be used to image in vivo tissues with high metabolic activity. Fluorescent deoxyglucose tracers can monitor glucose uptake in metabo-lically-active cells and tissues, although few have been reported for in vivo use. Herein synthesized compound SCOTfluor-89 was synthetized as an in vivo-compatible glucose analog by nucleophilic substitution of nitrobenzoselenadiazole with 2-deoxyglucosamine. […] The transport of SCOTfluor-89 in HeLa cells transfected with EGFP-tagged GLUT4, the main glucose transporter in mammalian cells was examined. […] Finally, compound SCOTfluor-89 was tested in vivo in zebrafish embryos to visualize regions of high glucose uptake. […] We confirmed that the staining was dependent on the active transport of SCOTfluor-89 through GLUT2 by examining glut2 morpholino-injected zebrafish, which have reduced levels of GLUT2.

HeLa cells = assay: Cytotoxicity assay in HeLa cells; settings: 100 μM and 75 μM (1% DMSO), 4 h at 37° C.
Procedure: Cell viabilities were normalized to incubation in cell culture media under the same experimental conditions. A solution of 40% DMSO in cell culture media was used as a known cytotoxic positive control. Values represented as means±s.e.m. (n=3).

[1] = Optical properties of SCOTfluors (absorbance, emission, extinction coefficient, quantum yield, solvatochromism); type: physicochemical
Procedure: All compounds were dissolved in different organic solvents, including toluene, chloroform, tetrahydrofuran, ethanol, DMSO and water (final concentrations: 10-50 μM). Fluorescence spectra were acquired on a spectrophotometer upon excitation at their maxima absorbance wavelengths.
The optical properties of SCOTfluor-80, 79, 78, 76 and 81 were compared with the properties of the original NBD.

GLUT4 = molecular target: T1, GLUT4 (Homo sapiens, UniProt P14672); assay: Uptake in GLUT4-EGFP transfected HeLa cells (fluorescence microscopy); type: cell-based; settings: 100 μM
T1 construct: PYP (photoactive yellow protein tag); HA; expressed in transfected cells; host or cells: HeLa
T1 sequence (P14672 1-509): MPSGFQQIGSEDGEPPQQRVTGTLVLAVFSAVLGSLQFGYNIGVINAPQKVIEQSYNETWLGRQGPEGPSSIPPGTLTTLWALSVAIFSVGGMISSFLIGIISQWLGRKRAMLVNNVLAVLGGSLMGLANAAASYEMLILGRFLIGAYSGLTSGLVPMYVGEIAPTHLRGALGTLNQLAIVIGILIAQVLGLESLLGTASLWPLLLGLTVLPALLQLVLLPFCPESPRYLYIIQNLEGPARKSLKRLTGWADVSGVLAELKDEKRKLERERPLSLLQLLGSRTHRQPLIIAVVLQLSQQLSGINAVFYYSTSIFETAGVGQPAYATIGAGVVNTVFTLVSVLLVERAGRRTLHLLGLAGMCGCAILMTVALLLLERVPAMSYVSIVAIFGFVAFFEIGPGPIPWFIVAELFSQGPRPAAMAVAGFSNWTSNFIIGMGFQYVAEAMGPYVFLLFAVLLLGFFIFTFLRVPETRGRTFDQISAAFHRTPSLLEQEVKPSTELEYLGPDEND
Procedure: as §1
(§2) A549 and HeLa cells were obtained from LGC Standards and cultured in Dulbecco's modified Eagle's medium (DMEM) supplemented with 10% FBS, 100 U mL^−1 penicillin and 0.1 mg mL^−1 streptomycin. For transfection experiments, HeLa cells were transfected with pcDNA-PYP-GLUT4-HA-EGFP. Amplification of plasmid-DNA was performed by transformation of competent E. coli DH5a, followed by isolation of pcDNA-PYP-GLUT4-HA-EGFP using GeneJet Plasmid Miniprep kit (ThermoFisher) according to the manufacturer's instructions. Prior to transfection, pcDNA concentration was determined using NanoDrop. Transfection of HeLa cells was performed according to manufacturer's protocol with 1 μg pcDNA-PYP-GLUT4-HA-EGFP using Lipofectamine 3000. Non-transfected as well as transfected cells were maintained at 37° C. and 5% CO2 throughout the imaging experiments.
Confocal fluorescence microscopy was performed on a confocal Leica SP5 or a spinning disk microscope with excitation at 488 nm (ER Tracker, LysoTracker, EGFP & SCOTfluor-89), 561 nm (SCOTfluor-101) and 405 nm (Hoechst 33342). […]

[2] = Emission of SCOTfluor-101 in PBS/water and in liposomes; type: physicochemical
A549 cells = assay: Time-lapse confocal microscopy co-localization with ER and lysosome markers; type: cell-based, human; settings: 50 μM
Procedure: C) Time-lapse confocal microscopy images of A549 cells treated with SCOTfluor-101 (50 μM, red), LysoTracker Blue (magenta) and ER Tracker Green (green) after 15 min (co-localization: white arrows) and 3 h (co-localization: yellow arrows). Total co-localization coefficients (R) were determined using ImageJ. Scale bar: 15 μm.
as §2
Confocal fluorescence microscopy was performed on a confocal Leica SP5 or a spinning disk microscope with excitation at 488 nm (ER Tracker, LysoTracker, EGFP & SCOTfluor-89), 561 nm (SCOTfluor-101) and 405 nm (Hoechst 33342). Prior to time-lapse imaging and imaging of HeLa cells, cells were incubated in Krebs-Ringer bicarbonate buffer (KRB) (129 mM NaCl, 4.7 mM KCl, 1.2 mM KH2PO4, 5 mM NaHCO3, 10 mM HEPES; 2.5 mM CaCl2, 1.2 mM MgCl2 and 0.2% BSA, pH 7.4) at 37° C. for 3 h. When appropriate, HeLa cells were washed and imaged in KRB with 1 μM Hoechst 33342 at 37° C., 5% CO2.
Then, the properties of SCOTfluors for imaging the trafficking of essential metabolites under physiological conditions. […] This property was exploited to visualize the recycling of ceramide SCOTfluor-101 in real time in human A549 cells using fluorescence confocal microscopy. […]

[3] = glut2 morpholino-injected zebrafish embryos

Molecule | cytotoxicity (cell viability) (HeLa cells) | Φ [1] | ε [1] | λabs. [1] [nm] | λem. [1] [nm] | also measured
CCN(CC)c1ccc([N+](=O)[O-])c2n[se]nc12 [SCOTfluor-54] |  |  |  |  |  | in vivo fluorescence staining (GLUT2; [3]): no tissue-specific staining; in vivo fluorescence staining (GLUT2; wildtype zebrafish embryos): no tissue-specific staining
CCCNc1ccc([N+](=O)[O-])c2n[se]nc12 [SCOTfluor-76] | no significant cytotoxicity | 0.20 | 16,300 M^−1cm^−1 | 510 | 606 | 
CCCNc1ccc([N+](=O)[O-])c2nsnc12 [SCOTfluor-78] |  | 0.54 | 14,600 M^−1cm^−1 | 476 | 548 | 
CCCNc1ccc([N+](=O)[O-])c2n[nH]nc12 [SCOTfluor-79] |  | <0.01 | 37,300 M^−1cm^−1 | 420 | 460 | 
CCCNc1ccc([N+](=O)[O-])c2c1=NC(C)(C)N=2 [SCOTfluor-80] |  | 0.09 | 27,300 M^−1cm^−1 | 564 | 650 | 
CCCNc1ccc([N+](=O)[O-])c2c1=NC1(CCCCC1)N=2 [SCOTfluor-81] | no significant cytotoxicity | 0.11 | 28,300 M^−1cm^−1 | 546 | 650 | 
O=[N+]([O-])c1ccc(N[C@H]2C(O)O[C@H](CO)[C@@H](O)[C@@H]2O)c2n[se]nc12 (stereo partly drawn) [SCOTfluor-89, (3R,4R,5S,6R)-6-(hydroxymethyl)-3-((7-nitrobenzo[c][1,2,5]selenadiazol-4-yl)amino)tetrahydro-2H-pyran-2,4,5-triol] | no significant cytotoxicity |  |  |  |  | transport by GLUT4 (GLUT4): functional substrate of GLUT4; uptake under competition with excess glucose (GLUT4; 5 mM D-glucose): blocked; uptake after pre-treating with insulin (GLUT4; insulin 100 nM, 1 h): increased; in vivo fluorescence staining (GLUT2; [3]): much weaker fluorescence; in vivo fluorescence staining (GLUT2; wildtype zebrafish embryos): bright red fluorescence staining in regions of the developing brain; Stokes shift [1]: 115 nm; emission [1]: around 605 nm
CCCCCCCCCCCCC/C=C/[C@@H](O)[C@H](CO)NC(=O)CCCCCNc1ccc([N+](=O)[O-])c2c1=NC(C)(C)N=2 [SCOTfluor-101, N-((2S,3R,E)-1,3-dihydroxyoctadec-4-en-2-yl)-6-((2,2-dimethyl-7-nitro-2H-benzo[d]imidazol-4-yl)amino)hexanamide] | no significant cytotoxicity |  |  |  |  | increase in emission on incubation with liposomes ([2]; phosphatidylcholine:cholesterol (7:1) liposomes vs PBS): over 15 fold; aggregation in water ([2]; water): minimal aggregation; emission [1]: > 660 nm; co-localization (R) with ER Tracker Green (A549 cells; 15 min): 91%; co-localization (R) with LysoTracker Blue (A549 cells; 15 min): 26%; co-localization (R) with LysoTracker Blue (A549 cells; after 3 h): 75%
Nitrobenzodioxazole [NBD, reference compound] |  | 0.55 | 15,400 M^−1cm^−1 | 486 | 542 | 
